In the experiment the test system is Anti-Thy-1 antibody nephritis rats. The experiment is described as follows: Pharmacological effect: total protein content in urine. In kind it is in vivo, rat. The conditions noted are these: administered once i.v. on the fifth day after anti-Thy-1 antibody, urine collected on the tenth day. How it is done: Anti-Thy-1 antibody nephritis rats were prepared by intravenously administering an anti-Thy-1 antibody solution through the caudal vein of each CD (SD) male rat. On the fifth day after administration of the anti-Thy-1 antibody, the liposome dispersion liquid obtained in Preparation Example 15 (1 mg as prednisolone phosphate sodium) was administered by intravenous injection. On the tenth day after administration of the anti-Thy-1 antibody, urine was collected to measure the total protein content.
For the sake of comparison, the preparation of Comparative Example 1 (a liposome dispersion liquid having no included drug) or physiological saline was administered by the same method, and urine was collected on the tenth day after administration of the anti-Thy-1 antibody to measure the total protein content.
Also, a prednisolone phosphate sodium solution (1 mg as prednisolone phosphate sodium) which was not made into liposomes was administered once on the fifth day after administration of the anti-Thy-1 antibody, or five times (once a day for 5 days) started on the fifth day after administration of the anti-Thy-1 antibody, and urine was collected on the tenth day after administration of the anti-Thy-1 antibody to measure the total protein content.
Urine was also collected from un-treated normal rat to measure the total protein content.

For prednisolone phosphate sodium, the “effect on excretion of protein into urine (total protein content)” value is listed as “no effect was found”.

The values above are taken from patent publication US6562371B1, “Liposomes” (Terumo Kabushiki Kaisha, priority 1998, dated 2003).
